Measurements: PMC12384813

Legend:
[1] = Solubility in aqueous media; assay type: physicochemical; conditions: needs 10% DMSO in saline to fully dissolve
[2] = Stability by mass spectrometry at physiological pH; assay type: physicochemical; conditions: pH 7.0, over 72 h
[3] = tested on: U87 MG cells; assay: Cellular uptake of ^64Cu-NOTA conjugates; assay type: cell-based, human
Experimental: (§1) U87 MG (1 × 10^5 per well) were seeded in corning 24-well plates and cultured in DMEM with 10% FBS at 37 °C. […] For uptake assay, cells were washed with PBS to collect surface-bound and internalized activity, and for internalization assay, glycine-HCl wash was performed to remove surface bound activity. Moreover, cells were harvested, counted, and radioactivity was measured using a gamma counter. Results were expressed as percentage of total activity (%) in counts per min (CPM)/10^6 cells. For efflux studies, U87 MG cells were incubated with the complexes for 1 h, then washed with PBS, and replaced with fresh medium. The retained activity was measured over 0 to 24 h after washing.

[4] = tested on: SVG p12 cells; assay: Cellular uptake of ^64Cu-NOTA conjugates; assay type: cell-based, human; conditions: Table S1
[5] = tested on: U87 MG cells; assay: Internalization of ^64Cu-NOTA conjugates (glycine-HCl wash); assay type: cell-based, human
Experimental: as §1

[6] = tested on: SVG p12 cells; assay: as above; assay type: cell-based, human; conditions: Table S2
[7] = tested on: U87 MG cells; assay: Efflux kinetics of ^64Cu-NOTA conjugates; assay type: cell-based, human; conditions: Table S3
Experimental: as §1

[8] = tested on: SVG p12 cells; assay: Efflux kinetics of ^64Cu-NOTA conjugates; assay type: cell-based, human; conditions: Table S3
[9] = tested on: SVG p12 cells; assay: Subcellular localization (nucleus/cytoplasm fractions); assay type: cell-based, human
Experimental: (§2) The nucleus and cytoplasm of U87 MG and SVG p12 cells were extracted following established procedures as previously reported. […] After incubation, cells were washed and incubated on ice with CSK buffer (0.5% Triton X-100, 300 mM sucrose, 100 mM NaCl, 1 mM EDTA, 2 mM MgCl2, and 10 mM HEPES, pH 6.8) for 2 min. After 5 min centrifugation, supernatant containing cytoplasmic extract was collected and transferred in labeled tubes. The resulting pellets were incubated on ice for 2 min with CSK buffer without Triton X-100 to extract the nuclear fraction. The buffer containing the nuclear fraction was collected into separate tubes. The radioactivity in both cytoplasmic and nuclear fractions was measured using a gamma counter (HIDEX Automatic Gamma Counter 2014).

[10] = tested on: U87 MG cells; assay: as above; assay type: cell-based, human
Experimental: as §2

[11] = tested on: U87 MG cells; assay: cells; assay type: cell-based, human; conditions: U87 MG, 24 h, vs ^natCu-NOTA-TP-c(RGDfK)
Experimental: In this procedure, U87 MG (2 × 10^4 cells per well) were seeded in BD falcon transparent 96-well plates and incubated for 24 h.

[12] = Plasma stability by radio-TLC; assay type: in vitro ADME; conditions: 48 h, 37 °C, mouse plasma
Experimental: To precipitate plasma proteins, the samples were treated twice with ethanol (1:1, v/v), vortexed for 1 min, and centrifuged at 7000 rpm for 10 min. The soluble fraction was separated by ultracentrifugation, and radioactivity was measured. The resulting supernatant was analyzed by radio-TLC on C18 plates. […] Radio-TLC was developed using 0.1 M sodium citrate buffer (pH 5.5), and radiodetection was performed with an Instant Imager system (BioScan, Washington, DC, USA) (Figure S5C). The supernatant fraction was then analyzed using the same methodology described above.

[13] = target: bovine serum albumin (Bos taurus, UniProt P02769); assay: Binding to bovine serum albumin; assay type: in vitro ADME
[14] = tested on: SVG p12 normal glial cells
[15] = 0.5 h after 1 h incubation and wash

bovine serum albumin, sequence (P02769 25-607): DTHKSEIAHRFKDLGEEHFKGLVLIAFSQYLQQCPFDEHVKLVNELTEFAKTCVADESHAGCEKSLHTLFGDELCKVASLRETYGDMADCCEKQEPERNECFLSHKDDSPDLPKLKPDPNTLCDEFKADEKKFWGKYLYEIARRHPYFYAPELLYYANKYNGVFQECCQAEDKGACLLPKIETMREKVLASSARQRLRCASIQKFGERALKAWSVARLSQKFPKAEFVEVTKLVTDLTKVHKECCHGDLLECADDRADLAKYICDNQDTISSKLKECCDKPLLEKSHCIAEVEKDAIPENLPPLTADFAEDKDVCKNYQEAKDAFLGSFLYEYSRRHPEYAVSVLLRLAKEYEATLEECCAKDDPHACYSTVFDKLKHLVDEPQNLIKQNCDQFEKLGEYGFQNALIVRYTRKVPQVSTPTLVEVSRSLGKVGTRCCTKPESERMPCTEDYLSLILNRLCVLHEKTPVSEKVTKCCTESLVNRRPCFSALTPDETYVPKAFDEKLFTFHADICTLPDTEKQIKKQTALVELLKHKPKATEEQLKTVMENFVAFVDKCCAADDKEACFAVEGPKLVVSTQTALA

## N=C(N)NCCC[C@@H]1NC(=O)[C@H](CCCCNC(=O)[C@H](CCCCNC(=O)c2cc(-c3ccccn3)nc(-c3ccccn3)c2)NC(=O)COCCOCCNC(=O)CN2CCN(CC(=O)O)CCN(CC(=O)O)CC2)NC(=O)[C@@H](Cc2ccccc2)NC(=O)[C@H](CC(=O)O)NC(=O)CNC1=O [^natCu-NOTA-TP-c(RGDfK), metal not drawn]
[1]
  solubility in aqueous media: limited solubility in aqueous media
[2]
  release of copper or platinum (mass spectrometry): no detectable release of copper or platinum

## N=C(N)NCCC[C@@H]1NC(=O)[C@H](CCCCNC(=O)[C@H](CCCCNC(=O)c2cc(-c3ccccn3)nc(-c3ccccn3)c2)NC(=O)COCCOCCNC(=O)CN2CCN(CC(=O)O)CCN(CC(=O)O)CC2)NC(=O)[C@@H](Cc2ccccc2)NC(=O)[C@H](CC(=O)O)NC(=O)CNC1=O [metal not drawn]
[3]; 1 h, 37 °C, Table S1
  Uptake 1h U87 MG: 6.21 ± 1.58 % total activity (CPM) /106 cells
[3]; 2 h, Table S1
  Uptake 2h U87 MG: 6.89 ±1.73 % total activity (CPM) /106 cells
[3]; 4 h, Table S1
  Uptake 4h U87 MG: 10.33 ± 1.86 % total activity (CPM) /106 cells
[3]; 24 h
  uptake in U87 MG cells: 38.8 ± 1.8%
[3]; 24 h, Table S1
  Uptake 24h U87 MG: 38.76 ± 1.82 % total activity (CPM) /106 cells
[3]; 24 h, U87 MG
  uptake relative to [^64Cu]Cu-NOTA-TP: approximately 1.3 times
  uptake relative to [^64Cu]Cu-NOTA-c(RGDfK): ~2.7 times
[3]; 48 h, Table S1
  Uptake 48h U87 MG: 37.56 ± 1.30 % total activity (CPM) /106 cells
[4]; 1 h
  Uptake 1h SVG p12: 3.63 ± 0.21 % total activity (CPM) /106 cells
[4]; 2 h
  Uptake 2h SVG p12: 4.96 ± 0.89 % total activity (CPM) /106 cells
[4]; 4 h
  Uptake 4h SVG p12: 5.80 ± 0.49 % total activity (CPM) /106 cells
[4]; 24 h
  Uptake 24h SVG p12: 10.87 ± 2.17 % total activity (CPM) /106 cells
[4]; 48 h
  Uptake 48h SVG p12: 8.38 ± 1.70 % total activity (CPM) /106 cells
[5]; 1 h, Table S2
  Internalized activity 1h U87 MG: 5.50 ± 0.80 % total activity (CPM) /106 cells
[5]; 1 h, U87 MG
  internalized fraction: 5.5 ± 0.8 % CPM/10^6 cells
[5]; 2 h, Table S2
  Internalized activity 2h U87 MG: 5.67 ± 0.67 % total activity (CPM) /106 cells
[5]; 4 h, Table S2
  Internalized activity 4h U87 MG: 7.35 ± 1.31 % total activity (CPM) /106 cells
[5]; 24 h
  internalization in U87 MG cells: 28.0 ± 1.0%
[5]; 24 h, Table S2
  Internalized activity 24h U87 MG: 28.03 ± 1.02 % total activity (CPM) /106 cells
[5]; 24 h, U87 MG
  internalization compared to [^64Cu]Cu-NOTA-TP: over 1.5 fold
  internalization compared to [^64Cu]Cu-NOTA-c(RGDfK): more than 2.4 fold
  internalized fraction: 28.0 ± 1.0 % CPM/10^6 cells
[5]; 48 h, Table S2
  Internalized activity 48h U87 MG: 24.08 ± 1.63 % total activity (CPM) /106 cells
[6]; 1 h
  Internalized activity 1h SVG p12: 2.85 ± 0.56 % total activity (CPM) /106 cells
[6]; 2 h
  Internalized activity 2h SVG p12: 2.46 ± 0.90 % total activity (CPM) /106 cells
[6]; 4 h
  Internalized activity 4h SVG p12: 2.79 ± 0.38 % total activity (CPM) /106 cells
[6]; 24 h
  Internalized activity 24h SVG p12: 7.40 ± 1.43 % total activity (CPM) /106 cells
[6]; 48 h
  Internalized activity 48h SVG p12: 8.21 ± 0.74 % total activity (CPM) /106 cells
[7]; [15]
  Efflux (retained activity) 0.5h U87 MG: 88.93 ± 9.47 % total activity (CPM) /106 cells
[7]; 1 h after wash
  Efflux (retained activity) 1h U87 MG: 93.32 ± 1.47 % total activity (CPM) /106 cells
[7]; 2 h after wash
  Efflux (retained activity) 2h U87 MG: 83.19 ± 4.21 % total activity (CPM) /106 cells
[7]; 4 h after wash
  Efflux (retained activity) 4h U87 MG: 76.55 ± 2.59 % total activity (CPM) /106 cells
[7]; 24 h after wash
  Efflux (retained activity) 24h U87 MG: 51.36 ± 2.08 % total activity (CPM) /106 cells
[8]; [15]
  Efflux (retained activity) 0.5h SVG p12: 85.25 ± 8.63 % total activity (CPM) /106 cells
[8]; 1 h after wash
  Efflux (retained activity) 1h SVG p12: 75.50 ± 10.93 % total activity (CPM) /106 cells
[8]; 2 h after wash
  Efflux (retained activity) 2h SVG p12: 54.29 ± 8.47 % total activity (CPM) /106 cells
[8]; 4 h after wash
  Efflux (retained activity) 4h SVG p12: 59.78 ± 2.75 % total activity (CPM) /106 cells
[8]; 24 h after wash
  Efflux (retained activity) 24h SVG p12: 31.32 ± 1.01 % total activity (CPM) /106 cells
[9]; SVG p12, 24 h
  nuclear uptake: 2.5 ± 0.8%
[9]; SVG p12, 48 h
  nuclear uptake: 0.9 ± 0.2%
[9]; SVG p12, 72 h
  nuclear uptake: 0.9 ± 0.3%
[10]; 24 h
  cytoplasmic distribution: 17.4 ± 1.5%
  nuclear uptake: 6.0 ± 0.5%
[10]; 48 h
  cytoplasmic distribution: 21.0 ± 0.7%
[10]; 72 h
  cytoplasmic distribution: 15.4 ± 0.5%
[11]
  improvement in potency compared to nonradioactive analogue: approximately 2500 fold
[12]
  free ^64Cu in plasma supernatant by radio-TLC: no detectable free ^64Cu
[13]
  binding to bovine serum albumin: 52%
[14]
  toxicity in normal SVG p12 astrocytes: minimal toxicity
